# Patent US20110071197A1, “BIS-ARYL COMPOUNDS FOR USE AS MEDICAMENTS” (priority 2008, published 2011)
# Biological target: T1, Recombinant human LTC4 synthase (Homo sapiens, UniProt Q16873)
# T1 construct: made in house; host or cells: Pichia pastoris
# T1 sequence (Q16873 1-150): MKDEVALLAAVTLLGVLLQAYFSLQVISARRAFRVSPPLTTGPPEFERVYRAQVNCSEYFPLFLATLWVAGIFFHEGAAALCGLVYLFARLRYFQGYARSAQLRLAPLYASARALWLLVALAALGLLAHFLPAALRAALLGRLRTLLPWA
# Test: LTC4 synthase in vitro assay (HTRF detection of LTC4)
# Format: biochemical
# Conditions: compound concentration 3 μM; HTRF method
# Summary of the method: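 Pichia-expressed recombinant human LTC4 synthase at 0.5 μg/ml total protein in PBS pH 7.4 with 5 mM GSH, preincubated 10 min at RT with inhibitor (10 μM final). LTA4 (2.5 μM final) was then added for 5 min at RT. LTC4 formed was read by HTRF.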
row,Molecule,inhibition at 3 µM [%]
1,"CCCCc1ccc(C(=O)Nc2ccc(Oc3ccc(NC(=O)c4ccccc4)cc3)cc2C(=O)O)cc1 [8:8, 5-(4-benzoylaminophenoxy)-2-(4-butylbenzoylamino)benzoic acid]",89
2,"O=C(O)c1cc(Oc2ccc(Nc3ccc(C(=O)C4CC4)cc3)c(C(=O)O)c2)ccc1Nc1ccc(F)cc1 [1:7, 5-[3-carboxy-4-(4-cyclopropane-carbonylphenylamino)phenyloxy]-2-(4-fluorophenylamino)benzene-carboxylic acid]",97

# Same assay, conditions: total concentration of title compound in the assay 10 μM; HTRF method
Molecule,% inh. [%],inhibition at 10 µM [%]
CCCCOc1ccc(S(=O)(=O)Nc2ccc(Oc3cccc(CC(=O)NS(=O)(=O)c4ccc(F)c(F)c4)c3)cc2C(=O)OC(C)(C)C)cc1 [26:3],95,
"CCCCc1ccc(S(=O)(=O)N(C)c2ccc(Oc3ccc(NC(=O)c4ccc(OC(C)C)cc4)c(C(=O)O)c3)cc2)cc1 [11:6, 5-{4-[(4-butylbenzene-sulfonyl)-methylamino]phenoxy}-2-(4-isopropoxybenzoylamino)-benzoic acid]",,96
"Cc1nc(C(F)(F)F)ccc1C(=O)Nc1ccc(Oc2ccc(NS(=O)(=O)c3ccc(F)c(Cl)c3)c(C(=O)O)c2)cc1 [21:1, 2-(3-Chloro-4-fluoro-benzenesulfonylamino)-5-{4-[(2-methyl-6-trifluoromethyl-pyridine-3-carbonyl)-amino]-phenoxy}-benzoic acid]",,100
"CCCCc1ccc(C(=O)Nc2ccc(Oc3ccc(NC(=O)c4ccc(C(F)(F)F)cc4)c(C(=O)O)c3)cc2)cc1 [8:4, 5-[4-(4-(butyl)benzoylamino)-phenoxy]-2-(4-trifluoromethyl-benzoylamino)benzoic acid]",,89
"CCCCc1ccc(C(=O)Nc2ccc(Oc3ccc(NC(=O)c4ccccc4)c(C(=O)O)c3)cc2C(=O)O)cc1 [5:1, 5-[3-carboxy-4-(4-butylbenzamido)-phenyloxy]-2-benzamidobenzoic acid]",,100
"CCCCOc1ccc(S(=O)(=O)Nc2ccc(Oc3cccc(CC(=O)NS(=O)(=O)c4ccc(F)c(F)c4)c3)cc2C(=O)O)cc1 [26:4, 2-(4-Butoxybenzenesulfonylamino)-5-{3-[2-(3,4-difluorobenzenesulfonyl-amino)-2-oxoethyl]phenoxy}benzoic acid]",,95
"O=C(O)c1cc(Oc2ccc(N(c3ccc(C(=O)C4CC4)cc3)c3ccc(C(=O)C4CC4)cc3)cc2)ccc1Nc1ccc(C(=O)C2CC2)cc1 [12:4, 5-{4-[bis-(4-cyclopropane-carbonyl-phenyl)-amino]-phenoxy}-2-(4-cycloprop-anecarbonyl-phenylamino)-benzoic acid]",,87
"O=C(O)c1cc(Oc2ccc(Nc3ccc(F)c(F)c3)cn2)ccc1Nc1ccc(F)c(F)c1 [Example 33:1, 2-(3,4-Difluorophenylamino)-5-[5-(3,4-difluorophenylamino)pyridin-2-yloxy]-benzoic acid]",,97
"O=C(O)c1cc(Oc2ccc(S(=O)(=O)Nc3ccc(F)c(F)c3)cc2)ccc1NC(=O)c1cccc(Cl)c1Cl [25:5, 2-(2,3-Dichlorobenzoylamino)-5-[4-(3,4-difluorophenylsulfamoyl)-phenoxy]benzoic acid]",,100
"O=C(O)c1cc(Sc2ccc(Nc3ccc(F)c(F)c3)cc2)ccc1Nc1ccc(F)c(F)c1 [Example 14:2, 2-(3,4-difluorophenylamino)-5-[4-(3,4-difluoro-phenylamino)-phenylsulfanyl]-benzoic acid]",,99
"CCCCOc1ccc(S(=O)(=O)NC(=O)c2cccc(Oc3ccc(Nc4ccc(Cl)cc4)c(C(=O)O)c3)c2)cc1 [20:9, 5-[3-(4-Butoxy-benzenesulfonyl-aminocarbonyl)-phenoxy]-2-(4-chloro-phenylamino)-benzoic acid]",,100
"CCCCc1ccc(C(=O)Nc2ccc(Oc3ccc(NC(=O)c4ccc(Cl)cc4Cl)c(CC(=O)O)c3)cc2C(=O)O)cc1 [6:1, 2-(4-butyl-benzoyl-amino)-5-[3-carboxy-methyl-4-(2,4-dichloro-benzoylamino)phenoxy]-benzoic acid]",99,
"CCCCOc1ccc(S(=O)(=O)Nc2ccc(Oc3ccc(NC(=O)c4ccc(OC(C)C)cc4)c(C(=O)O)c3)cc2/C=C/C(=O)O)cc1 [Example 22:4, 5-[4-(4-butoxybenzenesulfonyl-amino)-3-((E)-2-carboxyvinyl)-phenoxy]-2-(4-isopropoxy-benzoylamino)benzoic acid]",,100
"O=C(O)c1cc(Sc2ccc(NS(=O)(=O)c3ccc(Cl)cc3)cc2)ccc1NS(=O)(=O)c1ccc(Cl)cc1 [14:4, 2-(4-chloro-benzenesulfonyl-amino)-5-[4-(4-chloro-benzenesulfonylamino)-phenylsulfanyl]-benzoic acid]",,100
2-[(2-Chloro-pyridine-3-carbonyl)-amino]-5-{4-[(4-methoxy-benzene-sulfonyl)methylamino]-phenoxy}benzoic acid [11:20],76,
"Cc1c(Cl)cccc1S(=O)(=O)Nc1ccc(Oc2cc(Nc3ccc(F)c(F)c3)cc(C(=O)O)c2)cc1 [18:4, 3-[4-(3-Chloro-2-methyl-benzene-sulfonylamino)-phenoxy]-5-(3,4-difluoro-phenylamino)-benzoic acid]",,98

Molecule,% inh. [%],inhibition at 10 µM [%]
"O=C(Nc1ccc(Sc2ccc(NS(=O)(=O)c3ccc(Cl)cc3F)c(C(=O)O)c2)cc1)c1ccc(C(F)(F)F)cc1 [Example 35:2, 2-(4-Chloro-2-fluoro-benzenesulfonylamino)-5-[4-(4-trifluoromethylbenzoylamino)-phenylsulfanyl]benzoic acid]",,100
"CCCCc1ccc(C(=O)Nc2ccc(Oc3ccc(NC(=O)c4cc(Cl)cc(Cl)c4)c(C(=O)O)c3)cc2C(=O)O)cc1 [2:6, 5-[3-carboxy-4-(3-chloro-5-chloro-benzamido)-phenyloxy]-2-(4-butylbenz-amido)benzoic acid]",100,
"CCCCOc1ccc(S(=O)(=O)Nc2ccc(Oc3ccc(NC(=O)c4ccccc4)cc3)cc2CCC(=O)O)cc1 [Example 22:2, 3-[5-(4-Benzoylaminophenoxy)-2-(4-butoxybenzenesulfonylamino)-phenyl]propionic acid]",,99
"CN(c1cc(Oc2ccc(NS(=O)(=O)c3cccc(Cl)c3Cl)cc2)cc(C(=O)O)c1)c1ccc(F)c(F)c1 [18:1, 3-[4-(2,3-dichloro-benzenesulfonylamino)-phenoxy]-5-[(3,4-difluoro-phenyl)-methyl-amino]-benzoic acid]",,97
5-{4-[(4-methoxybenzene-sulfonyl)methylamino]-phenoxy}-2-(4-trifluoromethyl-benzoylamino)benzoic acid [11:3],98,
"CCCCc1ccc(C(=O)Nc2ccc([S+]([O-])c3ccc(NC(=O)c4ccc(CCCC)cc4)c(C(=O)O)c3)cc2C(=O)O)cc1 [15:1, 5-(4-(4-butylbenzamido)-3-carboxyphenylsulfinyl)-2-(4-butylbenzamido)benzoic acid]",,99
"CCCCc1ccc(S(=O)(=O)Nc2ccc(Sc3ccc(NS(=O)(=O)c4ccc(CCCC)cc4)c(C(=O)O)c3)cc2)cc1 [14:3, 2-(4-butyl-benzenesulfonyl-amino)-5-[4-(4-butyl-benzen-sulfonylamino)phenyl-sulfanyl]benzoic acid]",,98
"CCCCc1ccc(C(=O)Nc2ccc(Sc3ccc(NC(=O)c4ccc(CCCC)cc4)c(C(=O)O)c3)cc2C(=O)O)cc1 [13:1, 2-(4-butylbenzamido)-5-((4-(4-butylbenzamido)-3-carboxyphenyl)-sulfanyl)benzoic acid]",,98
"CCCCc1ccc(C(=O)Nc2ccc(Oc3ccc(NC(=O)c4ccc(F)cc4Cl)c(C(=O)O)c3)cc2C(=O)O)cc1 [2:8, 5-[3-carboxy-4-(2-chloro-4-fluorobenz-amido)-phenyloxy]-2-(4-butylbenz-amido)benzoic acid]",100,
"O=C(O)c1cc(Oc2cccc(Oc3ccc(F)c(F)c3)c2)ccc1Nc1ccc(F)c(F)c1 [Example 28:3, 5-[3-(3,4-Difluoro-phenoxy)-phenoxy]-2-(3,4-difluoro-phenylamino)-benzoic acid]",,96
Cc1c(F)cccc1S(=O)(=O)Nc1ccc(Oc2ccc(N(C)C(=O)c3ccc(OC(C)C)cc3)c(C(=O)O)c2)cc1 [11:11],72,
"CCCCc1ccc(S(=O)(=O)N(C)c2ccc(Oc3ccc(NC(=O)c4ccc(Cl)cc4Cl)c(C(=O)O)c3)cc2)cc1 [11:7, 5-{4-[(4-butylbenzenesulfonyl)-methylamino]phenoxy}-2-(2,4-dichlorobenzoylamino)benzoic acid]",,100
"O=C(O)c1cc(Oc2ccc(Nc3ccc(F)cc3)cc2)ccc1Nc1ccc(F)c(F)c1 [Example 12:1, 2-(3,4-difluorophenylamino)-5-(4-(4-fluorophenylamino)-phenoxy)benzoic acid]",,96
"CCCCc1ccc(C(=O)Nc2ccc(Oc3ccc(N(C)C(=O)c4ccc(CCCC)cc4)cc3)cc2C(=O)O)cc1 [9:1, 5-(4-((N-methyl)-4-butylbenz-amido)phenoxy)-2-(4-butylbenz-amido)benzoic acid]",100,
"CCCCOc1ccc(S(=O)(=O)Nc2ccc(Oc3ccc(NC(=O)c4ccccc4)cc3)cc2CC(=O)O)cc1 [17:7, [5-(4-benzoylamino-phenoxy)-2-(4-butoxy-benzenesulfonyl-amino)-phenyl]-acetic acid]",,95
"O=C(O)Cc1cc(Oc2ccc(NC(=O)c3ccc(C(F)(F)F)cc3F)c(C(=O)O)c2)ccc1NC(=O)c1cccc(Cl)c1 [6:4, 5-[3-carboxymethyl-4-(3-chloro-benzoylamino)-phenoxy]-2-(2-fluoro-4-trifluoromethylbenzoyl-amino)benzoic acid]",,96
